Literature values as cited in patent US11485742B2, “2-azaspiro[3.4]octane derivatives as M4 agonists” (NOVARTIS AG, priority 2019, dated 2022).

Tested on: hyperactivity in mice induced by the stimulant d-amphetamine
Conditions: general statement on clinically efficacious muscarinic anti-psychotics; cited from earlier work

## CCCCCCOc1nsnc1C1=CCCN(C)C1 [xanomeline]
  activity in the amphetamine induced hyperlocomotion assay: active
